How the values were obtained:
[1] = tested on: Peripheral Blood Mononuclear Cells (PBMCs); test: LPS-stimulated PBMC TNFα release assay; assay type: cell-based; conditions: IC50 classes; human PBMC, LPS 10 ng/ml, 18 h; read-out: LPS-stimulated PBMC TNFα release inhibition
Summary of the method: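 Human PBMCs from healthy donors, adhered 3 h in serum-free RPMI, received compound for 1 h in 1% FBS medium before 10 ng/ml LPS for 18 h. Supernatant TNFα was measured by MSD; IC50 from percentage inhibition of control release, at least three separate experiments.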

p38alpha = molecular target: T1, p38alpha (Homo sapiens, UniProt Q16539); test: P38alpha enzyme inhibition assay (Alphascreen kinase activity assay); assay type: biochemical; conditions: IC50 classes; 2 hours preincubation at 25° C., 250 μM ATP; read-out: p38α inhibition
T1 construct: purchased Invitrogen PV3304
T1 sequence (Q16539 whole entry): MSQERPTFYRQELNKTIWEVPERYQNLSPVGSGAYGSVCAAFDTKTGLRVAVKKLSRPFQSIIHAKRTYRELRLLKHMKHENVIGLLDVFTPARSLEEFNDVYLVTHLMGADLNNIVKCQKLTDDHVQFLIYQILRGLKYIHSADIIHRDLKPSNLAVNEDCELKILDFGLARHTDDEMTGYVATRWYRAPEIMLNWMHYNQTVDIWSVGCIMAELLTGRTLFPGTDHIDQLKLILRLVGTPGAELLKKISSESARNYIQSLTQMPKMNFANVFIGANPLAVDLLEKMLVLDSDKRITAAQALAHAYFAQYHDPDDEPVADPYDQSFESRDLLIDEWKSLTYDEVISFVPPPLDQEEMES
Summary of the method: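 p38alpha with 0.3 μg/ml ATF-2 fusion protein in HEPES pH 7.5 buffer (10 mM MgCl2, 2 mM DTT, 1% DMSO); compounds preincubated 2 h at 25° C, then 250 μM ATP added for 1 h at 25° C. Phospho-ATF2 detected by AlphaScreen luminescence with anti-phospho-ATF2 antibody; IC50 from concentration-response curves.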

BEAS-2B cells = test: TNFα-stimulated BEAS-2B IL-8 release assay; assay type: cell-based; conditions: Homo sapiens, IC50 classes, TNF-α 10 ng/ml, 18 h, read-out: TNFα-stimulated BEAS-2B IL-8 release inhibition
Summary of the method: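 BEAS-2B cells at 80-90% confluence were pre-incubated 1 h with p38 inhibitors, then stimulated 18 h at 37 °C with TNF-α (10 ng/ml). Supernatant IL-8 was measured by ELISA. IC50 was taken from sigmoidal variable-slope fits of % inhibition of control release.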

IC50 (p38alpha) | SMILES | IC50 [1] | IC50 (BEAS-2B cells)
< 1 nM | CN1CCC[C@@]1(C)c1nnc2ccc(O[C@@H]3CC[C@H](NC(=O)Nc4cc(CN(CCO)CCO)cc(C(C)(C)C)c4)c4ccccc43)cn12 [Example 75, 1-(3-{[Bis-(2-hydroxy-ethyl)-amino]-methyl}-5-tert-butyl-phenyl)-3-{(1S,4R)-4-[3-((S)-1,2-dimethyl-pyrrolidin-2-yl)-[1,2,4]triazolo[4,3-a]pyridin-6-yloxy]-1,2,3,4-tetrahydro-naphthalen-1-yl}-urea] | 1 to 5 nM | > 1 nM
< 1 nM | C[C@H]1CCCCN1c1nnc2ccc(O[C@@H]3CC[C@H](NC(=O)Nc4cc(CN(C)CCO)cc(C(C)(C)C)c4)c4ccccc43)cn12 [Example 68, 1-(3-tert-Butyl-5-{[(2-hydroxy-ethyl)-methyl-amino]-methyl}-phenyl)-3-{(1S,4R)-4-[3-((S)-2-methyl-piperidin-1-yl)-[1,2,4]triazolo[4,3-a]pyridin-6-yloxy]-1,2,3,4-tetrahydro-naphthalen-1-yl}-urea] | > 5 nM | > 1 nM

Source: US10100050B2 (CHIESI FARMACEUTICI S.P.A., priority 2015, dated 2018)
